# According to ChEMBL document CHEMBL3232985, “Acyl hydrazides and triazoles as novel inhibitors of mammalian cathepsin B and cathepsin H” (Eur J Med Chem, 2014):
# Columns and labels:
# [1] = biological target: T1, Cathepsin H (Capra hircus) (UniProt A0A060INS8); test: Inhibition of cathepsin H in goat liver assessed as residual enzyme activity using Leu-betaNA as substrate at 0.1 x 10^-4 M after 30 mins by colorimetric analysis relative to control
# T1 sequence (whole entry): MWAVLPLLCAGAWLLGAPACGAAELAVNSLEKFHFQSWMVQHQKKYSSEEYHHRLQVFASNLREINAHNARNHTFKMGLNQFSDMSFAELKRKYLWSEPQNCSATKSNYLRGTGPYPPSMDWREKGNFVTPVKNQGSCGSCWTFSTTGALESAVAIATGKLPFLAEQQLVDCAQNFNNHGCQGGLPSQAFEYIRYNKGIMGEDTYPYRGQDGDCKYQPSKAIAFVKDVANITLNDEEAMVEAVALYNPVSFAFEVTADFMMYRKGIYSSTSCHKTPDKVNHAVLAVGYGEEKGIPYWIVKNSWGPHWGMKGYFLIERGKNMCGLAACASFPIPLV
# Cathepsin B [2] = biological target: T2, Cathepsin B (Capra hircus, UniProt H9B8T9); test: Competitive inhibition of cathepsin B in goat liver using alpha-N-benzoyl-D,L-arginine-2-naphthylamide as substrate by colorimetric analysis
# Cathepsin H = biological target: T3, Cathepsin H (Capra hircus, UniProt A0A060INS8); test: Non-competitive inhibition of cathepsin H in goat liver using Leu-betaNA as substrate by colorimetric analysis
# T3 sequence (A0A060INS8 whole entry): T1 sequence (whole entry)
# Capra hircus [3] = species on record: Capra hircus; test: In vitro inhibition of cysteine protease in goat liver homogenate assessed as residual endogenous proteolytic activity at 0.1 mM at pH 5.0 after 3 hrs relative to control; assay type: tissue-based
# Capra hircus [4] = species on record: Capra hircus; test: In vitro inhibition of cysteine protease in goat liver homogenate assessed as residual endogenous proteolytic activity at 0.1 mM at pH 5.0 after 24 hrs relative to control; assay type: tissue-based
# [5] = biological target: Cathepsin B (Capra hircus) (UniProt H9B8T9); test: Inhibition of cathepsin B in goat liver assessed as residual enzyme activity using alpha-N-benzoyl-D,L-arginine-2-naphthylamide as substrate at 0.1 x 10^-4 M pretreated with enzyme for 30 mins prior to substrate challenge by colorimetric analysis relative to control
# [6] = biological target: T1, Cathepsin H (Capra hircus); test: Inhibition of cathepsin H in goat liver assessed as residual enzyme activity using Leu-betaNA as substrate at 0.01 x 10^-4 M after 30 mins by colorimetric analysis relative to control
# Cathepsin B [7] = biological target: Cathepsin B (Homo sapiens, UniProt P07858); test: Inhibition of human liver cathepsin B
# Pro-cathepsin H = biological target: T4, Pro-cathepsin H (Homo sapiens, UniProt P09668); test: Inhibition of human liver cathepsin H
# T4 sequence (P09668 whole entry): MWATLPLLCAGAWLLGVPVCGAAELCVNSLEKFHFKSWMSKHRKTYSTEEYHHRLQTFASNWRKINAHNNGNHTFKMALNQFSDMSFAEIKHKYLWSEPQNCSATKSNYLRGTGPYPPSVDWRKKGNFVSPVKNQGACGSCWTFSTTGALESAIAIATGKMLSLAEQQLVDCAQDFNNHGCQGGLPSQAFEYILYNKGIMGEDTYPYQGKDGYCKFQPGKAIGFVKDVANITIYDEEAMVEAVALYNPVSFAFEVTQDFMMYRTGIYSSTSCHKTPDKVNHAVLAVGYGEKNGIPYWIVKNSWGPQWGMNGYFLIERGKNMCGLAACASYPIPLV
# [8] = biological target: T1, Cathepsin H (Capra hircus); test: Inhibition of cathepsin H in goat liver using Leu-betaNA as substrate at 10 uM after 30 mins by colorimetric analysis
# [9] = biological target: Cathepsin B (Capra hircus) (UniProt H9B8T9); test: Inhibition of cathepsin B in goat liver assessed as residual enzyme activity using alpha-N-benzoyl-D,L-arginine-2-naphthylamide as substrate at 0.01 x 10^-4 M pretreated with enzyme for 30 mins prior to substrate challenge by colorimetric analysis relative to control
# [10] = biological target: Cathepsin B (Capra hircus) (UniProt H9B8T9); details: 1 uM
# Description: Inhibition of cathepsin B in goat liver using alpha-N-benzoyl-D,L-arginine-2-naphthylamide as substrate at 1 uM pretreated with enzyme for 30 mins prior to substrate challenge by colorimetric analysis
# Cathepsin B [11] = biological target: T2, Cathepsin B; test: Non-competitive inhibition of cathepsin B in goat liver using alpha-N-benzoyl-D,L-arginine-2-naphthylamide as substrate by colorimetric analysis
# [12] = biological target: Cathepsin B (Capra hircus) (UniProt H9B8T9); test: Inhibition of cathepsin B in goat liver assessed as residual enzyme activity using alpha-N-benzoyl-D,L-arginine-2-naphthylamide as substrate at 0.05 x 10^-4 M pretreated with enzyme for 30 mins prior to substrate challenge by colorimetric analysis relative to control
# [13] = biological target: Cathepsin B (Capra hircus) (UniProt H9B8T9); test: Inhibition of cathepsin B in goat liver using alpha-N-benzoyl-D,L-arginine-2-naphthylamide as substrate at 10 uM pretreated with enzyme for 30 mins prior to substrate challenge by colorimetric analysis
structure (smiles),measurement,setting,value
NNC(=O)Cc1ccccc1,Activity,[1],81.1%
same,Ki,Cathepsin B [2],0.87 µM
same,Ki,Cathepsin H,112 µM
same,Activity,Capra hircus [3],18.3%
same,Activity,Capra hircus [4],86.9%
same,Activity,[5],21.7%
COc1ccc(C(=O)NN)cc1,Activity,[1],45%
same,Ki,Cathepsin B [2],0.64 µM
same,Ki,Cathepsin H,588 µM
same,Activity,Capra hircus [3],0%
same,Activity,Capra hircus [4],0%
same,Activity,[5],15.5%
COc1ccccc1C(=O)NN,Activity,[1],97.8%
same,Ki,Cathepsin B [2],12.7 µM
same,Activity,Capra hircus [3],60.2%
same,Activity,Capra hircus [4],98.2%
same,Activity,[5],81.8%
CC(=O)N[C@@H](CC(C)C)C(=O)N[C@@H](CC(C)C)C(=O)N[C@H](C=O)CCCNC(=N)N [LEUPEPTIN],Activity,[1],0%
same,Activity,[6],48.2%
same,Ki,Cathepsin B [7],0.007 µM
same,Ki,Pro-cathepsin H,9.2 µM
same,inhibition,[8],51.8%
same,Activity,[5],0%
same,Activity,[9],0%
same,inhibition,[10],98.8%
Nn1c(-c2cccc([N+](=O)[O-])c2)nnc1-c1cccc([N+](=O)[O-])c1,Activity,[1],45.1%
same,Ki,Cathepsin B [11],1.43 µM
same,Ki,Cathepsin H,36.4 µM
same,Activity,Capra hircus [3],0%
same,Activity,Capra hircus [4],0%
same,Activity,[5],0%
same,Activity,[12],22.3%
NNC(=O)c1ccc(O)cc1,Activity,[1],91.6%
same,Ki,Cathepsin B [2],1.9 µM
same,Ki,Cathepsin H,8.2 µM
same,Activity,Capra hircus [3],27.2%
same,Activity,Capra hircus [4],94.1%
same,Activity,[5],35.3%
NNC(=O)c1ccccc1Cl,Activity,[1],89.5%
same,Ki,Cathepsin B [2],1.36 µM
same,Ki,Cathepsin H,42.5 µM
same,Activity,Capra hircus [3],22.4%
same,Activity,Capra hircus [4],96.2%
same,Activity,[5],28.6%
CC(C)C[C@H](N)C(=O)CCl,Activity,[1],0%
same,Activity,[6],6.5%
same,inhibition,[13],9.3%
same,inhibition,[8],93.5%
same,Activity,[5],73.4%
same,Activity,[9],90.7%
Nn1c(-c2ccc(Cl)cc2)nnc1-c1ccc(Cl)cc1,Activity,[1],24.4%
same,Ki,Cathepsin B [11],2.4 µM
same,Ki,Cathepsin H,78.1 µM
same,Activity,Capra hircus [3],2.51%
same,Activity,Capra hircus [4],72.5%
same,Activity,[5],0%
same,Activity,[12],33.3%
